From patent US10730875B2, “Substituted imidazo[1,2-A]pyridin-2-ylamine compounds, and pharmaceutical compositions and methods of use thereof” (JN Therapeutics, priority 2015, dated 2020)

Molecular target: JAK1 (Homo sapiens (Human), UniProt P23458)
Experiment: Cellular JAK1 assay: IL-6-mediated STAT3 phosphorylation in TF-1 cells
Type: cell-based
Details: IL-6 stimulation, STAT3 phosphorylation at Tyr705 (AlphaLISA), read-out: Inhibitory Activity Against JAK1 IC50
Experimental: The cellular potency of a compound on JAK1 or JAK2 inhibition is determined by measuring the cytokine-mediated phosphorylation of STAT proteins in TF-1 cells.
Human cytokines of IL-6 (R&D Systems, Cat. No. 206-IL-010/CF) and GM-CSF (R&D Systems, Cat. No. 215-GM-010/CF) are reconstituted at 10 μg/mL in D-PBS containing 0.1% BSA (Sigma, Cat. No. A8577) and human EPO (R&D Systems, Cat. No. 287-TC-500) at 500 U/mL in D-PBS containing 0.1% BSA. TF-1 cells (ATCC, CRL-2003) were grown in RPMI1640 (ATCC, Cat. No. 30-2001) supplemented with 2 ng/mL of recombinant human GM-CSF, 10% FBS (Gibco, Cat. No. 10437-028), and 100 U/mL penicillin-streptomycin (Gibco, Cat. No. 15140-122). The cells were maintained and propagated between 1×10^5 cells/mL to 7.5×10^5 cells/mL. Aliquots of the cells from early passages were preserved for liquid nitrogen storage. Frozen vials of the cells were thawed at 37° C. water bath. The cells were spun to remove freezing medium. The newly revived frozen cells were adapted in culture for 5-7 days before used for compound testing. The cells used in for compound testing were less than 20 subculture passages or 3 months in culture.
To test compounds, the TF-1 cells were harvested at a density of 3 to 7×10^5 cells/mL by centrifugation. After removing the culture medium, the resulting cell pellet was suspended and washed once by centrifugation with HBSS buffer (Gibco, Cat. No. 14025-092) containing 0.1% BSA. The cell pellet was resuspended in HBSS buffer at 7.5×10^6 cells/mL. Four micro-liters of the cells (3×10^4 cells in total) were added to each well of a white 384-well plate (Packard, Cat. No. 6005214).
The compounds were first diluted in dimethylsulfoxide (DMSO) (Sigma, Cat. No. D2650) to generate 9 3-fold diluted dosing concentrations in a 96-well polypropylene plate (Corning, Cat. No. 3365), followed by addition of HBSS buffer for another 125-fold dilution. To the cells, 2 μL of the diluted compounds were added and mixed by tapping the plate several times. The cells were incubated for 2 hrs of treatment. DMSO was used as a control and similarly diluted along and added to the cells.
To assay JAK1 inhibition, 2 μL of IL-6 diluted at 400 ng/mL (4×) in HBSS containing 0.1% BSA was added to the treated cells. The cells were then incubated for 30 min of cytokine treatment and lysed at the end by addition of 2 μL of 5×AlphaLISA SureFire Ultra lysis buffer from Perkin Elmer. The plate was agitated on a plate shaker for 10 min at room temperature. The cellular JAK1 activity was determined by measuring STAT3 phosphorylation at Tyr705 in lysates using the AlphaLISA SureFire Ultra kit (Perkin Elmer, Cat. No. ALSU-PST3-A500). A volume of 5 μL of acceptor mix and donor mix was added sequentially to lysates following the product protocol. The assay signals were recorded on EnVision plate reader (Perkin Elmer) with AlphaScreen optics setting.
The results are summarized in Table 3, where A represents a value no greater than 500 nM, B represents a value greater than 500 nM but no greater than 1 μM, C represents a value greater than 1 μM but no greater than 5 μM, and D represents a value greater than 5 μM.

Chain of JAK1 (P23458 whole entry): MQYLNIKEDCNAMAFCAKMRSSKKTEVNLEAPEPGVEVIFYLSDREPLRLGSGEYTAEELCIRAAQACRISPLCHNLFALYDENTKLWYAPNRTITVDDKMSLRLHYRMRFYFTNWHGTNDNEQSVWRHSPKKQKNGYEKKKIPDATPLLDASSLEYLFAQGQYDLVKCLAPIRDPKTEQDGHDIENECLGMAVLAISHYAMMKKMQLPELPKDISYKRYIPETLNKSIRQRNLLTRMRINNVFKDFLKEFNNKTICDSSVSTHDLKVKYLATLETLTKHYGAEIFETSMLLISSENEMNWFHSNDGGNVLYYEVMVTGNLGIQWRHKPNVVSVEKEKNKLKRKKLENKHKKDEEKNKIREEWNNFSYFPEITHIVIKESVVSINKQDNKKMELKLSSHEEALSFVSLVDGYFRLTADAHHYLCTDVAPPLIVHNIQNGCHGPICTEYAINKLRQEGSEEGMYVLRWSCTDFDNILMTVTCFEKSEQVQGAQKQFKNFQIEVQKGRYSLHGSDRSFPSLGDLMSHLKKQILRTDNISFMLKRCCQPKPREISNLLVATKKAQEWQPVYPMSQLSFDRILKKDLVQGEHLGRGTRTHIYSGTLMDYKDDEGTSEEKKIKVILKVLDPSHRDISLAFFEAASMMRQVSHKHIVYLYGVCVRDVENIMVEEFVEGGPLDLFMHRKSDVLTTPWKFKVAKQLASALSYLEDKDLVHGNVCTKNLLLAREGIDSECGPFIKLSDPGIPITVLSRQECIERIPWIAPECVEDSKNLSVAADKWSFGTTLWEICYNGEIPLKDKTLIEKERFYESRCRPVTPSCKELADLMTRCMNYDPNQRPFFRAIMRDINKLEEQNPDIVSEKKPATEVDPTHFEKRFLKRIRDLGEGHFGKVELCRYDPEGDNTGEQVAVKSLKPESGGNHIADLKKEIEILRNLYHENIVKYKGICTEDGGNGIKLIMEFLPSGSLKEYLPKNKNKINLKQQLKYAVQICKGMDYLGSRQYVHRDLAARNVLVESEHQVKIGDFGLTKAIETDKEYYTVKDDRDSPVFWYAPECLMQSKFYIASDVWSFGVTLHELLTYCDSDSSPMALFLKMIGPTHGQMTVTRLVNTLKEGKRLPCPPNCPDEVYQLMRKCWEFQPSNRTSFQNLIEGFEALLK

IC50: ≤ 500 nM
Compound: O=C(Nc1cn2c(-c3ccc(CN4CCS(=O)(=O)CC4)cc3F)cccc2n1)C1CC1 [Compound 14]
